# Experiments:
# Type in all cases: in vivo
# [1] = system: Cabbage Looper (Trichoplusia ni, TRIPNI) ("CL"); experiment: Bioassays on CL, 128-well diet tray assay; details: 168 h, second instar larvae, 50 μg/cm^2 on artificial diet, 25° C., five to seven days, average of eight wells, read-out: CL % Control (or Mortality) rating
# Experimental: (§1) Certain molecules disclosed in this document were tested against BAW, CEW, and CL using procedures described in the following examples. In the reporting of the results, the “BAW, CEW, & CL Rating Table” was used (See Table Section).
# Bioassays on CL were conducted using a 128-well diet tray assay. one to five second instar CL larvae were placed in each well (3 mL) of the diet tray that had been previously filled with 1 mL of artificial diet to which 50 μg/cm^2 of the test compound (dissolved in 50 μL of 90:10 acetone-water mixture) had been applied (to each of eight wells) and then allowed to dry. Trays were covered with a clear self-adhesive cover and held at 25° C., 14:10 light-dark for five to seven days. Percent mortality was recorded for the larvae in each well; activity in the eight wells was then averaged. The results are indicated in the table entitled “Table ABC: Biological Results” (See Table Section).
# [2] = system: Beet Armyworm (Spodoptera exigua, LAPHEG) ("BAW"); experiment: Bioassays on BAW, 128-well diet tray assay; details: 168 h, second instar larvae, 50 μg/cm^2 on artificial diet, 25° C., five to seven days, average of eight wells, read-out: BAW % Control (or Mortality) rating
# Experimental: as §1
# Bioassays on BAW were conducted using a 128-well diet tray assay. one to five second instar BAW larvae were placed in each well (3 mL) of the diet tray that had been previously filled with 1 mL of artificial diet to which 50 μg/cm^2 of the test compound (dissolved in 50 μL of 90:10 acetone-water mixture) had been applied (to each of eight wells) and then allowed to dry. Trays were covered with a clear self-adhesive cover and held at 25° C., 14:10 light-dark for five to seven days. Percent mortality was recorded for the larvae in each well; activity in the eight wells was then averaged. The results are indicated in the table entitled “Table ABC: Biological Results” (See Table Section).
# [3] = system: Yellow Fever Mosquito (Aedes aegypti, AEDSAE) ("YFM"); experiment: Bioassays on YFM, 96-well plate larval assay; details: about 1 day-old larvae, from 4000 ppm DMSO master plate diluted, room temperature, scored after 3 days
# Experimental: Certain molecules disclosed in this document were tested against YFM using procedures described in the following paragraph. In the reporting of the results, the “YFM Rating Table” was used (See Table Section).
# Master plates containing 400 μg of a molecule dissolved in 100 μL of dimethyl sulfoxide (DMSO) (equivalent to a 4000 ppm solution) are used. A master plate of assembled molecules contains 15 μL per well. To this plate, 135 μL of a 90:10 water:acetone mixture is added to each well. A robot (Biomek® NXP Laboratory Automation Workstation) is programmed to dispense 15 μL aspirations from the master plate into an empty 96-well shallow plate (“daughter” plate). There are 6 reps (“daughter” plates) created per master. The created daughter plates are then immediately infested with YFM larvae.
# The day before plates are to be treated, mosquito eggs are placed in Millipore water containing liver powder to begin hatching (4 g. into 400 mL). After the daughter plates are created using the robot, they are infested with 220 μL of the liver powder/larval mosquito mixture (about 1 day-old larvae). After plates are infested with mosquito larvae, a non-evaporative lid is used to cover the plate to reduce drying. Plates are held at room temperature for 3 days prior to grading. After 3 days, each well is observed and scored based on mortality.
Compound,mortality at 50 µg/cm2 [1] [%],mortality at 50 µg/cm2 [2] [%],YFM % Control (or Mortality) rating [3]
"CC(C)c1ccccc1NC(=O)Nc1ccc(-c2ncn(-c3ccc(OC(F)(F)F)cc3)n2)cc1 [F33, 1-(2-Isopropylphenyl)-3-(4-(1-(4-(trifluoromethoxy)phenyl)-1H-1,2,4-triazol-3-yl)phenyl)urea]",50 to 100,50 to 100,B (More than 0 - Less than 80)
"O=C(Nc1ccc(-c2ncn(-c3ccc(OC(F)(F)F)cc3)n2)cc1)Nc1ccccc1OC(F)(F)F [F26, 1-(2-(Trifluoromethoxy)phenyl)-3-(4-(1-(4-(trifluoromethoxy)phenyl)-1H-1,2,4-triazol-3-yl)phenyl)urea]",50 to 100,50 to 100,D (No activity noticed in this bioassay)
"O=C(Nc1ccc(-c2ncn(-c3ccc(OC(F)(F)F)cc3)n2)cc1)Nc1ccccc1C1CC1C1CC1 (centres unmarked) [F49, 1-(2-([1,1′-Bi(cyclopropan)]-2-yl)phenyl)-3-(4-(1-(4-(trifluoromethoxy)phenyl)-1H-1,2,4-triazol-3-yl)phenyl)urea]",50 to 100,0 to 50,D (No activity noticed in this bioassay)
"O=C(NCCCc1ccc(-c2ncn(-c3ccc(OC(F)(F)F)cc3)n2)cc1)Nc1ccccc1Cl [F84, 1-(2-Chlorophenyl)-3-(3-(4-(1-(4-(trifluoromethoxy)phenyl)-1H-1,2,4-triazol-3-yl)phenyl)propyl)urea]",50 to 100,50 to 100,B (More than 0 - Less than 80)
"FC(F)(F)Oc1ccc(-n2cnc(-c3ccc(NC(=S)Nc4ncccc4-c4ccccc4)cc3)n2)cc1 [F50, 1-(3-Phenylpyridin-2-yl)-3-(4-(1-(4-(trifluoromethoxy)phenyl)-1H-1,2,4-triazol-3-yl)phenyl)thiourea]",0,0,D (No activity noticed in this bioassay)
"COc1ccccc1NC(=O)NCc1ccc(-c2ncn(-c3ccc(OC(F)(F)F)cc3)n2)cc1 [F106, 1-(2-Methoxyphenyl)-3-(4-(1-(4-(trifluoromethoxy)phenyl)-1H-1,2,4-triazol-3-yl)benzyl)urea]",0,0,D (No activity noticed in this bioassay)
"Cc1ccccc1-c1cccnc1NC(=O)Nc1ccc(-c2ncn(-c3ccc(OC(F)(F)F)cc3)n2)cc1 [F24, 1-(3-(o-Tolyl)pyridin-2-yl)-3-(4-(1-(4-(trifluoromethoxy)phenyl)-1H-1,2,4-triazol-3-yl)phenyl)urea]",50 to 100,50 to 100,
"O=C(NCCCc1ccc(-c2ncn(-c3ccc(OC(F)(F)F)cc3)n2)cc1)Nc1ccc(Cl)cc1 [F79, 1-(4-Chlorophenyl)-3-(3-(4-(1-(4-(trifluoromethoxy)phenyl)-1H-1,2,4-triazol-3-yl)phenyl)propyl)urea]",50 to 100,,D (No activity noticed in this bioassay)
"Cc1ccccc1NC(=O)NCCCCc1ccc(-c2ncn(-c3ccc(OC(F)(F)F)cc3)n2)cc1 [F89, 1-(o-Tolyl)-3-(4-(4-(1-(4-(trifluoromethoxy)phenyl)-1H-1,2,4-triazol-3-yl)phenyl)butyl)urea]",,0,D (No activity noticed in this bioassay)
"Cc1ccccc1N(C(=O)Nc1ccc(-c2ncn(-c3ccc(OC(F)(F)F)cc3)n2)cc1)C(N)=S [F19, N-(2-methylphenyl)-N-(4-{1-[4-(trifluoromethoxy)phenyl]-1H-1,2,4-triazol-3-yl}phenyl)dicarbonimidothioic diamide]",50 to 100,50 to 100,
"CCc1ccccc1N(C(=O)Nc1ccc(-c2ncn(-c3ccc(OC(F)(F)F)cc3)n2)cc1)C(N)=S [F52, N-(2-Ethylphenyl)-N-(4-{1-[4-(trifluoromethoxy)phenyl]-1H-1,2,4-triazol-3-yl}phenyl)dicarbonimidothioic diamide]",50 to 100,50 to 100,
"Cc1ccc(NC(=O)NCCCc2ccc(-c3ncn(-c4ccc(OC(F)(F)F)cc4)n3)cc2)cc1 [F83, 1-(p-Tolyl)-3-(3-(4-(1-(4-(trifluoromethoxy)phenyl)-1H-1,2,4-triazol-3-yl)phenyl)propyl)urea]",0,,D (No activity noticed in this bioassay)
"Cc1cccc(NC(=O)NCCCCc2ccc(-c3ncn(-c4ccc(OC(F)(F)F)cc4)n3)cc2)c1 [F91, 1-(m-Tolyl)-3-(4-(4-(1-(4-(trifluoromethoxy)phenyl)-1H-1,2,4-triazol-3-yl)phenyl)butyl)urea]",0,,D (No activity noticed in this bioassay)
"O=C(NCc1ccc(-c2ncn(-c3ccc(OC(F)(F)F)cc3)n2)cc1)Nc1ccccc1-c1ccccc1 [F70, 1-([1,1′-biphenyl]-2-yl)-3-(4-(1-(4-(trifluoromethoxy)phenyl)-1H-1,2,4-triazol-3-yl)benzyl)urea]",50 to 100,50 to 100,
"O=C(NCCCCc1ccc(-c2ncn(-c3ccc(OC(F)(F)F)cc3)n2)cc1)Nc1ccccc1Cl [F92, 1-(2-Chlorophenyl)-3-(4-(4-(1-(4-(trifluoromethoxy)phenyl)-1H-1,2,4-triazol-3-yl)phenyl)butyl)urea]",0,,D (No activity noticed in this bioassay)
"O=C(Nc1ccc(-c2ncn(-c3ccc(OC(F)(F)F)cc3)n2)cc1)Nc1ccccc1-n1cccc1 [F13, 1-(2-(1H-pyrrol-1-yl)phenyl)-3-(4-(1-(4-(trifluoromethoxy)phenyl)-1H-1,2,4-triazol-3-yl)phenyl)urea]",50 to 100,50 to 100,
"COc1ccc(NC(=O)NCCCc2ccc(-c3ncn(-c4ccc(OC(F)(F)F)cc4)n3)cc2)cc1 [F82, 1-(4-Methoxyphenyl)-3-(3-(4-(1-(4-(trifluoromethoxy)phenyl)-1H-1,2,4-triazol-3-yl)phenyl)propyl)urea]",0,,D (No activity noticed in this bioassay)
"COc1cccc(NC(=O)NCCCCc2ccc(-c3ncn(-c4ccc(OC(F)(F)F)cc4)n3)cc2)c1 [F96, 1-(3-Methoxyphenyl)-3-(4-(4-(1-(4-(trifluoromethoxy)phenyl)-1H-1,2,4-triazol-3-yl)phenyl)butyl)urea]",,0,D (No activity noticed in this bioassay)
"O=C(Nc1ccc(-c2ncn(-c3ccc(OC(F)(F)F)cc3)n2)cc1)Nc1ncccc1-c1ccccc1 [F32, 1-(3-Phenylpyridin-2-yl)-3-(4-(1-(4-(trifluoromethoxy)phenyl)-1H-1,2,4-triazol-3-yl)phenyl)urea]",,,B (More than 0 - Less than 80)
"Cc1cccc(NC(=O)NCCCc2ccc(-c3ncn(-c4ccc(OC(F)(F)F)cc4)n3)cc2)c1 [F87, 1-(m-Tolyl)-3-(3-(4-(1-(4-(trifluoromethoxy)phenyl)-1H-1,2,4-triazol-3-yl)phenyl)propyl)urea]",0,,D (No activity noticed in this bioassay)
"CCc1ccccc1NC(=O)NCc1ccc(-c2ncn(-c3ccc(OC(F)(F)F)cc3)n2)cc1 [F101, 1-(2-Ethylphenyl)-3-(4-(1-(4-(trifluoromethoxy)phenyl)-1H-1,2,4-triazol-3-yl)benzyl)urea]",,0,D (No activity noticed in this bioassay)
